Laboratory results taken from ChEMBL document CHEMBL4837181 (Eur J Med Chem, 2020).

How the values were obtained:
[1] = Stimulation of proliferation of CD8 positive T cells (unknown origin); format: functional, tissue-based; details: CD8-positive T cell
[2] = Apparent oral clearance in male cynomolgus monkey at 75 mg/kg, po measured on day 1; format: ADME, organism-based, Macaca fascicularis; details: in vivo
[3] = Half life in male cynomolgus monkey at 225 mg/kg, po measured on day 1; format: ADME, organism-based, Macaca fascicularis; details: in vivo
[4] = Cmax in male cynomolgus monkey at 75 mg/kg, po measured on day 1; format: ADME, organism-based, Macaca fascicularis; set-up: route oral, dose 75 mg/kg; details: in vivo
[5] = Dose normalized Cmax in rat at 50 mg/kg, po measured upto 72 hrs by LC-MS/MS analysis; format: ADME, organism-based; details: in vivo
[6] = Solubility of compound at pH 7.4; format: physicochemical; details: buffer
[7] = Half life in male cynomolgus monkey at 15 mg/kg, iv measured on day 1; format: ADME, organism-based, Macaca fascicularis; details: in vivo
[8] = Oral bioavailability in rat; format: ADME, organism-based; details: in vivo
[9] = Average plasma concentration at steady state in mouse at 250 mg/kg administered bid; format: ADME, organism-based; details: in vivo
[10] = Apparent oral clearance in female cynomolgus monkey at 225 mg/kg, po measured on day 1; format: ADME, organism-based, Macaca fascicularis; details: in vivo
[11] = Half life in rat; format: ADME; details: in vivo
[12] = Clearance in female cynomolgus monkey at 75 mg/kg, po measured on day 1; format: ADME, organism-based, Macaca fascicularis; details: in vivo
[13] = Change in normalised Cmax in rat at 50 mg/kg, po measured upto 72 hrs by LC-MS/MS analysis; format: ADME, organism-based; details: in vivo
[14] = Oral bioavailability in female cynomolgus monkey at 75 mg/kg; format: ADME, organism-based, Macaca fascicularis; details: in vivo
[15] = AUC (0 to 24 hrs) in female cynomolgus monkey at 75 mg/kg, po BID measured on day 8; format: ADME, organism-based, Macaca fascicularis; set-up: time < 24 hr, route oral, dose 75 mg/kg; details: in vivo
[16] = Chemical stability of compound in PBS buffer assessed as compound remaining at pH 7.4 at 5 uM measured after 6 hrs by LC-MS/MS analysis; format: physicochemical; details: read-out: Stabilty
[17] = Dissociation constant, pKa of the compound; format: physicochemical
Cytochrome P450 2C8 = molecular target: T1, Cytochrome P450 2C8 (Homo sapiens, UniProt P10632); assay: Inhibition of CYP2C8 in human hepatocytes; format: ADME, cell-based, Hepatocyte
T1 sequence (P10632 whole entry): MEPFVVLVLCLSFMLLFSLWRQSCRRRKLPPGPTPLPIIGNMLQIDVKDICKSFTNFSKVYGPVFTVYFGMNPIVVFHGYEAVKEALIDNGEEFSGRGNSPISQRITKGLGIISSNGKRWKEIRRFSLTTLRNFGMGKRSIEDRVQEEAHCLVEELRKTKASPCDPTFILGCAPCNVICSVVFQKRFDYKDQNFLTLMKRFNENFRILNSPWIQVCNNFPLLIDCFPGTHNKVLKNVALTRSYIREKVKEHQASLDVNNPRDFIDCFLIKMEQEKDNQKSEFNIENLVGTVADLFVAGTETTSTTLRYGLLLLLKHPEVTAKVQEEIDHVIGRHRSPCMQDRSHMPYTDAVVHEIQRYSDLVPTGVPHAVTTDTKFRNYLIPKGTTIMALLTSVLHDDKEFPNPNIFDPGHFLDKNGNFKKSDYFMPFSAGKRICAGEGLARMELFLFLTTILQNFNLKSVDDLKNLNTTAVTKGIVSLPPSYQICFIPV

[18] = Drug metabolism in Beagle dog hepatocytes assessed as unmetabolized compound at 10 uM incubated for 120 mins by UPLC-QTOF-PDA analysis; format: ADME, cell-based, Canis lupus familiaris, Hepatocyte; details: read-out: Drug metabolism
[19] = Solubility in water; format: physicochemical
[20] = Tmax in female cynomolgus monkey at 75 mg/kg, po measured on day 1; format: ADME, organism-based, Macaca fascicularis; details: in vivo
[21] = Toxicity in rat assessed as abnormal respiratory sounds at 150 to 180 mg/kg, po; format: organism-based; details: in vivo, dose 150-180 mg/kg
[22] = Volume of distribution in male cynomolgus monkey at 15 mg/kg, iv measured on day 1; format: ADME, organism-based, Macaca fascicularis; details: in vivo
Cytochrome P450 2B6 = molecular target: T2, Cytochrome P450 2B6 (Homo sapiens, UniProt P20813); assay: Induction of CYP2B6 in human hepatocytes; format: ADME, cell-based, Hepatocyte
T2 sequence (P20813 whole entry): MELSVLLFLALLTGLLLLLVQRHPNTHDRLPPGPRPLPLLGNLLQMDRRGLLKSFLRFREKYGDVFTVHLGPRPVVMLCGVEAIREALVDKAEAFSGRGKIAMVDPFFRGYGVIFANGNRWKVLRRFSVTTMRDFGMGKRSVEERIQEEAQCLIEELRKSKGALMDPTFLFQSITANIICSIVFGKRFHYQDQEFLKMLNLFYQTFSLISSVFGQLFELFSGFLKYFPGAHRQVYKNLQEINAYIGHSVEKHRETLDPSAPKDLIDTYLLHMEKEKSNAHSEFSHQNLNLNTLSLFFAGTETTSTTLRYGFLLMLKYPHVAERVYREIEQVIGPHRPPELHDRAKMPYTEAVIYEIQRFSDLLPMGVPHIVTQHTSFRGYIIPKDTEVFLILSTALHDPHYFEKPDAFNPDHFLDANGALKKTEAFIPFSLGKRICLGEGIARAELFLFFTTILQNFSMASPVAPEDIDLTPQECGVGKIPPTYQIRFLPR

[23] = Solubility of the compound in FaSSIF; format: physicochemical
[24] = Toxicity in po BID rat assessed as NOAEL; format: organism-based; details: in vivo
Cytochrome P450 1A2 = molecular target: T3, Cytochrome P450 1A2 (Homo sapiens, UniProt P05177); assay: Induction of CYP1A2 in human hepatocytes; format: ADME, cell-based, Hepatocyte
T3 sequence (P05177 whole entry): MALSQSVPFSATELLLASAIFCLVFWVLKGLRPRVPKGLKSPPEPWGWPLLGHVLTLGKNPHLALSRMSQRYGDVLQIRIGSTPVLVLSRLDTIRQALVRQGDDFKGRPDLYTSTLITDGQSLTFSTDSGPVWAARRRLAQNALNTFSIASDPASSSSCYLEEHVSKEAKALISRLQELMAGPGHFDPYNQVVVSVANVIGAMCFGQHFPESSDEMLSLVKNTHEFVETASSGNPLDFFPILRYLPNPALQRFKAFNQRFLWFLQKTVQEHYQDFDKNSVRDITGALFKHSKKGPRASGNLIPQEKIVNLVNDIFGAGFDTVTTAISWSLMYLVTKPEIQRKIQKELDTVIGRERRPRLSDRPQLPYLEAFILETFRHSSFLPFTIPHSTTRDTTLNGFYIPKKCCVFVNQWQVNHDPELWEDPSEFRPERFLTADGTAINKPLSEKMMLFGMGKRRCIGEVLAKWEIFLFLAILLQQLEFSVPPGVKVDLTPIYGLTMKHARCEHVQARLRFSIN

[25] = Stability in mouse plasma assessed as parent compound remaining measured after 2 hrs by LC-MS/MS analysis; format: ADME, cell-free; details: read-out: Stabilty
[26] = Toxicity in rat assessed as decreased food assumption at 150 to 180 mg/kg, po; format: organism-based; details: in vivo, dose 150-180 mg/kg
[27] = Drug metabolism in cynomolgus monkey assessed as indoximod formation of by measuring indoximod Tmax at 75 to 675 mg/kg, po administered as single dose; format: ADME, organism-based, Macaca fascicularis; details: in vivo, dose 75-675 mg/kg
[28] = Toxicity in rat assessed as distended abdomen at 150 to 180 mg/kg, po; format: organism-based; details: in vivo, dose 150-180 mg/kg
[29] = Inhibition of P-gp transporter activity in MDR1-MDCK2 cells; format: cell-based, Canis lupus familiaris; details: mdckii-mdr1

Cn1cc(C[C@@H](N)C(=O)O)c2ccccc21 [INDOXIMOD]
EC50 [1]: ≥ 30 µM
CL/F [2]: 16.2 mL/min/kg
half-life [3]: 2.9 h
Cmax [4]: 74.4 µM
Cmax/dose [5]: 27 µM
solubility [6]: < 2 mg/mL
half-life [7]: 2 h
bioavailability [8]: 50%
Cave [9]: 29 µM
CL/F [10]: 82.2 mL/min/kg
half-life [11]: 30 h
CL/F [12]: 25.6 mL/min/kg
Activity [13]: 0%

CCOC(=O)[C@@H](Cc1cn(C)c2ccccc12)NC(=O)[C@@H](N)CC(C)C.Cl
bioavailability [14]: 50.1%
AUC at 24 h [15]: 0.0356 µM·h
remaining at 6 h, 5 µM [16]: 92%
pKa [17]: 7.76
IC50 (Cytochrome P450 2C8): > 50 µM
remaining at 2 h, 10 µM [18]: 1.1%
solubility [19]: 19.8 mg/mL
Tmax [20]: 2 h
Activity [21]: Toxic
Vd [22]: 309 L/kg
Activity (Cytochrome P450 2B6): Not Active
solubility [23]: 19.1 mg/mL
NOAEL [24]: 60 mg/kg
Activity (Cytochrome P450 1A2): Not Active
remaining at 2 h [25]: 0%
Activity [26]: Toxic
Tmax [27]: 1 h
Activity [28]: Toxic
IC50 [29]: 27 µM
